Measured values reported in PubChem BioAssay AID328 (DTP/NCI, 2004).
Where “and” joins values, the source holds several entries; their conditions need not be identical. Equal values may be shown once. Toxic doses and inconclusive results are not listed.

Tested on: BDF1 mice, P388 leukemia ip, median survival T/C
Experiment: NCI In Vivo Anticancer Drug Screen. Data for tumor model P388 Leukemia (intraperitoneal) in B6D2F1 (BDF1) mice
Details: endpoint: median survival time, higher = longer survival
Summary of the method: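 Reported as T/C, where T is the survival measurement in dosed animals and C the same measurement in vehicle controls.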

[1] = dose: 100.0 mg/kg/injection, schedule: Q01DX009 (ip), vehicle: Klucel (hydroxypropylcellulose) (HPC)
[2] = dose: 100.0 mg/kg/injection, schedule: Q04DX003 (ip), vehicle: Klucel (hydroxypropylcellulose) (HPC)
[3] = dose: 200.0 mg/kg/injection, schedule: Q04DX003 (ip), vehicle: Klucel (hydroxypropylcellulose) (HPC)
[4] = dose: 100.0 mg/kg/injection, schedule: Q01DX009 (ip), vehicle: saline with Tween-80
[5] = dose: 100.0 mg/kg/injection, schedule: Q01DX001 (ip), vehicle: saline with Tween-80
[6] = dose: 200.0 mg/kg/injection, schedule: Q01DX001 (ip), vehicle: saline with Tween-80
[7] = dose: 400.0 mg/kg/injection, schedule: Q01DX001 (ip), vehicle: saline with Tween-80
[8] = dose: 200.0 mg/kg/injection, schedule: Q01DX009 (ip), vehicle: Klucel (hydroxypropylcellulose) (HPC)
[9] = dose: 400.0 mg/kg/injection, schedule: Q01DX009 (ip), vehicle: Klucel (hydroxypropylcellulose) (HPC)

SMILES: CCN(C(=O)C(F)(F)F)C(C)(C)C(SSSC(c1ccc(Cl)cc1)C(C)(C)N(CC)C(=O)C(F)(F)F)c1ccc(Cl)cc1 (stereo not drawn)
- T/C (dose: 22.0 mg/kg/injection, schedule: Q01DX009 (ip), vehicle: Klucel (hydroxypropylcellulose) (HPC)): 115 % of control
- T/C (dose: 33.0 mg/kg/injection, schedule: Q01DX009 (ip), vehicle: Klucel (hydroxypropylcellulose) (HPC)): 115 % of control
- T/C (dose: 50.0 mg/kg/injection, schedule: Q01DX009 (ip), vehicle: Klucel (hydroxypropylcellulose) (HPC)): 120 % of control
- T/C (dose: 75.0 mg/kg/injection, schedule: Q01DX009 (ip), vehicle: Klucel (hydroxypropylcellulose) (HPC)): 120 % of control
- T/C [1]: 100 % of control
- T/C [2]: 112 % of control
- T/C [3]: 116 % of control

SMILES: CC(=O)NC1C(S[As](C)C)OC(COC(C)=O)C(OC(C)=O)C1OC(C)=O (stereo not drawn)
- T/C [4]: 124 % of control

SMILES: CC(C)n1c(=O)c2ccccc2[s+]1-c1ccccc1 (stereo not drawn)
- T/C [5]: 95 % of control
- T/C [6]: 95 % of control
- T/C [7]: 92 % of control

SMILES: COC(=O)[C@@H]1[C@H](O)[C@H](C)[C@H](O)[C@H](C)/C=C\C=C(C)C(=O)Nc2c(C)c(OC(C)=O)c3c(c2O)C(=O)C(C)=C2OCOC(=C23)C(C)=C[C@@](C)(O)[C@H](O)[C@@H](C)[C@H]1OC(C)=O
- T/C (dose: 50.0 mg/kg/injection, schedule: Q01DX009 (ip), vehicle: saline + alcohol): 95 % of control
- T/C [1]: 106 % of control
- T/C (dose: 100.0 mg/kg/injection, schedule: Q01DX009 (ip), vehicle: saline + alcohol): 99 % of control
- T/C [8]: 116 % of control and 123 % of control
- T/C (dose: 200.0 mg/kg/injection, schedule: Q01DX009 (ip), vehicle: saline + alcohol): 95 % of control
- T/C [9]: 115 % of control
- T/C (dose: 400.0 mg/kg/injection, schedule: Q01DX009 (ip), vehicle: saline + alcohol): 100 % of control

SMILES: CCCn1cnc2c(SCc3ccccc3Cl)nc(N)nc21
- T/C [1]: 90 % of control
- T/C (dose: 100.0 mg/kg/injection, schedule: Q04DX003 (ip), vehicle: other): 100 % of control
- T/C [8]: 95 % of control
- T/C (dose: 200.0 mg/kg/injection, schedule: Q04DX003 (ip), vehicle: other): 95 % of control
- T/C (dose: 400.0 mg/kg/injection, schedule: Q04DX003 (ip), vehicle: other): 104 % of control

SMILES: COC(=O)CC(CC(=O)c1ccccc1)c1ccccc1 (stereo not drawn)
- T/C (dose: 50.0 mg/kg/injection, schedule: Q01DX009 (ip), vehicle: saline with Tween-80): 95 % of control
- T/C [4]: 97 % of control
- T/C (dose: 200.0 mg/kg/injection, schedule: Q01DX009 (ip), vehicle: saline with Tween-80): 87 % of control
- T/C (dose: 400.0 mg/kg/injection, schedule: Q01DX009 (ip), vehicle: saline with Tween-80): 88 % of control

SMILES: O=C1c2ccccc2C(=O)N1N(c1ccccc1)c1ccccc1
- T/C [1]: 104 % of control
- T/C [2]: 110 % of control
- T/C [3]: 120 % of control
- T/C [9]: 100 % of control
- T/C (dose: 400.0 mg/kg/injection, schedule: Q04DX003 (ip), vehicle: Klucel (hydroxypropylcellulose) (HPC)): 105 % of control

SMILES: O=C1OCc2cc3ccccc3nc21
- T/C (dose: 100.0 mg/kg/injection, schedule: Q04DX003 (ip), vehicle: saline with Tween-80): 109 % of control
- T/C (dose: 200.0 mg/kg/injection, schedule: Q04DX003 (ip), vehicle: saline with Tween-80): 100 % of control
- T/C (dose: 400.0 mg/kg/injection, schedule: Q04DX003 (ip), vehicle: saline with Tween-80): 104 % of control

SMILES: CC12CCC(OC3OC(CO)C(O)C(O)C3O)CC1CCC1C2CCC2(C)C(C3=CC(=O)OC3)CCC12O (stereo not drawn)
- T/C (dose: 40.0 mg/kg/injection, schedule: Q01DX009 (ip), vehicle: saline): 86 % of control
- T/C (dose: 80.0 mg/kg/injection, schedule: Q01DX009 (ip), vehicle: saline): 86 % of control
- T/C (dose: 160.0 mg/kg/injection, schedule: Q01DX009 (ip), vehicle: saline): 95 % of control

SMILES: S=c1nc[nH]c2c1ncn2CN1CCCCC1
- T/C (dose: 66.0 mg/kg/injection, schedule: Q01DX009 (ip), vehicle: saline with Tween-80): 122 % of control
- T/C (dose: 150.0 mg/kg/injection, schedule: Q01DX009 (ip), vehicle: saline with Tween-80): 154 % of control

SMILES: Clc1cc(C(Cl)(Cl)Cl)ccc1C(Cl)(Cl)Cl
- T/C [5]: 100 % of control
- T/C [6]: 104 % of control
- T/C [7]: 95 % of control
